Measured values: publication PMC7044277 (Nature Communications, 2020)
Values joined by “and” are separate entries in the source; they are usually repeats but may differ in a detail not shown here. Identical values can stand only once.

Columns and labels:
Type in all cases: cell-based
320 non-olfactory GPCRs [1] = target: T1, 320 non-olfactory GPCRs (Homo sapiens, UniProt P48145); conditions: receptor NPBW1; replicate values, Fig_4g
T1 construct: expressed in transfected cells; host or cells: HTLA cells

320 non-olfactory GPCRs [2] = target: T2, 320 non-olfactory GPCRs (Homo sapiens, UniProt Q8IZF4)
T2 construct: expressed in transfected cells; host or cells: HTLA cells

320 non-olfactory GPCRs [3] = target: T3, 320 non-olfactory GPCRs (Homo sapiens, UniProt P29275)
T3 construct: expressed in transfected cells; host or cells: HTLA cells

320 non-olfactory GPCRs [4] = target: T4, 320 non-olfactory GPCRs (Homo sapiens, UniProt P43115); conditions: receptor PTGER3; replicate values, Fig_4g
T4 construct: expressed in transfected cells; host or cells: HTLA cells
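Wherever Fold of Basal is given: compound tested at 1 µM final concentration.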
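Wherever GPCRome agonism screen response is given: fold over basal response of each receptor without drug.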

T4 sequence (P43115 whole entry): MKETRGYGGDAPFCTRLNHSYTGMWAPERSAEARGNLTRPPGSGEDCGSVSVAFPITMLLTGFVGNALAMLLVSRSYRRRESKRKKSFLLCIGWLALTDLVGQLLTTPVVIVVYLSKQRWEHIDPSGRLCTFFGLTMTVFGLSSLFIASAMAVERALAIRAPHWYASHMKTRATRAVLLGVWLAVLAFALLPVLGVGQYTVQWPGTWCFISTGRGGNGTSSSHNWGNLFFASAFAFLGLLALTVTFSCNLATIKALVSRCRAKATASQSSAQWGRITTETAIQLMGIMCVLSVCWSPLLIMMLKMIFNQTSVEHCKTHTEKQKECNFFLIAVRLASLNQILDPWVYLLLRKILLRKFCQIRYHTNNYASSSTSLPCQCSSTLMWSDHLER
T1 sequence (P48145 whole entry): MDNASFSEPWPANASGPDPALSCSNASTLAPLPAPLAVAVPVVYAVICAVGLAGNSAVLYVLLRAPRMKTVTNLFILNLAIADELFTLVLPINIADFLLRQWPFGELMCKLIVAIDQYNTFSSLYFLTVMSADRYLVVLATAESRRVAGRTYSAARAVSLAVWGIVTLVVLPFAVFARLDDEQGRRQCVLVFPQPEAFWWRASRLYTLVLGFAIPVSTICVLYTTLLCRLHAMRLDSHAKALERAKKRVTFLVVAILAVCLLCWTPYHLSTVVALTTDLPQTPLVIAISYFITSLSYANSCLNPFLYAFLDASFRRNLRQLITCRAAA
T2 sequence (Q8IZF4 22-528): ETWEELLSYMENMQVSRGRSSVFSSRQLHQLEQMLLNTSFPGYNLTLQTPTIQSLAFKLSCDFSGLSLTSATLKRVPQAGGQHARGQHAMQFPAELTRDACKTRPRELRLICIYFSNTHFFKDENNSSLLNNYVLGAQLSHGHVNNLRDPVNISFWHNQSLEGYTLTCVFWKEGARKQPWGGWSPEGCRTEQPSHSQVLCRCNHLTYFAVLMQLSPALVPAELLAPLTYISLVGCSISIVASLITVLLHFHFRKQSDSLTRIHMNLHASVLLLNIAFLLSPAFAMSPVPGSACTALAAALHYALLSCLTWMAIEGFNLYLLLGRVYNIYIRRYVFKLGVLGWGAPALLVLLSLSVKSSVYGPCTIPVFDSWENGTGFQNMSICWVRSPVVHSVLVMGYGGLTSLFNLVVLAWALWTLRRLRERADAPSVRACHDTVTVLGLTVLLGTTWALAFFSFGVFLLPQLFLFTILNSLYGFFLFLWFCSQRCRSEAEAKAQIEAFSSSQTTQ
T3 sequence (P29275 whole entry): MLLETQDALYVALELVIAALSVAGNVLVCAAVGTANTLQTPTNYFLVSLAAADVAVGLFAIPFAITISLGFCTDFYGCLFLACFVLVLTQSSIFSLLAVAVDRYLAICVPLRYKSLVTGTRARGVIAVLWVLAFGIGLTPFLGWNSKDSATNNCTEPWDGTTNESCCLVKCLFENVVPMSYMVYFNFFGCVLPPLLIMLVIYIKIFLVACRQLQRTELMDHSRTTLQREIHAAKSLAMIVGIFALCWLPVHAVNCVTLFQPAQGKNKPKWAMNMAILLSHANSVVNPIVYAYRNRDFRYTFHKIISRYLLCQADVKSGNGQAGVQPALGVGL

With CCOc1cccc2cc(C(C)NCC3(O)CCCCC3)oc12 (stereo not shown) [O4LE6] the “GPCRome agonism screen response” value (320 non-olfactory GPCRs [1]) was 1.094 and 1.2601 and 1.077 and 0.8815, the “Fold of Basal” value (320 non-olfactory GPCRs [2]) was 1.8988 and 1.9 and 1.379 and the “Fold of Basal” value (320 non-olfactory GPCRs [3]) was 1.3919 and 1.763 and 1.526 and 2.198. For the same compound, the “GPCRome agonism screen response” value (320 non-olfactory GPCRs [4]) was 0.07165 and 0.9825 and 0.5999.
